Results: patent US12098145B2 (Libra Therapeutics, Inc., priority 2022, dated 2024)
Structures can show the parent of a compound that is named as a salt. Where two headings read alike, the source gives them in different places.

How the values were obtained:
[1] = target: T1, TRPML1 (Homo sapiens, UniProt Q9GZU1); test: Cellular TRPML1 assay (FLIPR, GCaMP6f calcium read-out); type: cell-based; conditions: HEKT-REx/GCaMP6f/TRPML1 cells, FLIPR TETRA, kinetic response over 300 seconds; read-out: TRPML1 FLIPR pEC50 (converted)
T1 construct: expressed in transfected cells; host or cells: HEK T-REx cells stably expressing GCaMP6f and TRPML1
T1 sequence (Q9GZU1 whole entry): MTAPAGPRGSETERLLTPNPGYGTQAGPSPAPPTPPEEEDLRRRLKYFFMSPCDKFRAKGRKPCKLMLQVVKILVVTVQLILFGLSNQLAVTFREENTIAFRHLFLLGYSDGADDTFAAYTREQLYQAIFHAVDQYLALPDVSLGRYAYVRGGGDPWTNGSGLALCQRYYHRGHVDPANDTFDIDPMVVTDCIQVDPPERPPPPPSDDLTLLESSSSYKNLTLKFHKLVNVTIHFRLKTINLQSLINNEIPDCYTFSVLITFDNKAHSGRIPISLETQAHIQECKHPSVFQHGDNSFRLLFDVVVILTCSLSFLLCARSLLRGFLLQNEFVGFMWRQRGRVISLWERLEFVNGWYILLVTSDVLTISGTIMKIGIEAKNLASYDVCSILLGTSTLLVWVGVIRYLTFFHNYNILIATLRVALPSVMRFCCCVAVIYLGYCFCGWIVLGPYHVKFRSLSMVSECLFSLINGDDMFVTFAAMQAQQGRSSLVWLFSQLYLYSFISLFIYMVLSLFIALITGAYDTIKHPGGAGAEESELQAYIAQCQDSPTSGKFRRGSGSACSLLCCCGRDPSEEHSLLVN
How it was run: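 Read-out is GCaMP6f fluorescence over 300 s after compound addition in Ca2+-free Tyrode's buffer, final DMSO 0.5%, on FLIPR Tetra. Cells are HEK T-REx stably co-expressing the indicator and TRPML1, plated 24 h earlier in Optimem + 0.5% FBS and pre-incubated ~10 min at room temperature.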

[2] = test system: TFEB; test: TFEB translocation assay (TFEB reporter in U2OS cells, imaging); type: cell-based; conditions: Homo sapiens, read-out: TFEB Translocation pEC50 (converted)
How it was run: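 Activity expresses the mean nuclear-to-cytosolic reporter ratio scaled between DMSO (0%) and Torin-1 (100%) controls. Read-out came from high-content imaging of fixed, Hoechst-counterstained U2OS cells carrying mRFP-tagged TFEB after 2 h compound exposure at 37 °C in Opti-MEM with 0.015% Tween 80 and 0.5% DMSO.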

[3] = U2OS cell line with TFEB reporter, 2 hours incubation, nucleus to cytoplasm ratio, normalized to Torin-1

| EC50 [1] [µM] | Compound | EC50 [2, 3] [µM] | EC50 ([2]; U2OS, 2 h) [µM] |
| --- | --- | --- | --- |
| 0.01 to 1 | CCN(C)Cc1oc(N2CC(C)(OC)C2)nc1C(=O)Nc1cc(F)c(OC2CC3CC(C3)C2)c(F)c1 (stereo not shown) [Example 307, N-(4-(bicyclo[3.1.1]heptan-3-yloxy)-3,5-difluorophenyl)-5-((ethyl(methyl)amino)methyl)-2-(3-methoxy-3-methylazetidin-1-yl)oxazole-4-carboxamide hydrochloride] | 0.01 to 1 | – |
| 0.01 to 1 | O=C(Nc1cc(F)c(O[C@@H]2C[C@@H]3C[C@@H]3C2)c(F)c1)c1nc(N2CCCC2)oc1CN1CCCC1 [Example 308, N-(4-(cis-bicyclo[3.1.0]hexan-3-yloxy)-3,5-difluorophenyl)-2-(pyrrolidin-1-yl)-5-(pyrrolidin-1-ylmethyl)oxazole-4-carboxamide hydrochloride] | 0.01 to 1 | – |
| 1 to 10 | O=C(Nc1cc(F)c2c(c1)CCN2C1CC2CC2C1)c1nc(N2CCCC2)oc1CC(F)(F)F (stereo not shown) [Example 315, N-(1-(bicyclo[3.1.0]hexan-3-yl)-7-fluoroindolin-5-yl)-2-(pyrrolidin-1-yl)-5-(2,2,2-trifluoroethyl)oxazole-4-carboxamide] | 0.01 to 1 | – |
| 0.01 to 1 | CCc1oc(N2CC(CC)(CC)C2)nc1C(=O)Nc1cc(F)c2c(c1)CCN2C1CC2CC2C1 (stereo not shown) [Example 316, N-(1-(bicyclo[3.1.0]hexan-3-yl)-7-fluoroindolin-5-yl)-2-(3,3-diethylazetidin-1-yl)-5-ethyloxazole-4-carboxamide] | 0.01 to 1 | – |

| Compound | EC50 [1] [µM] | EC50 [2, 3] [µM] | EC50 ([2]; U2OS, 2 h) [µM] |
| --- | --- | --- | --- |
| CCN(C)Cc1oc(N2CC(CC)(OC)C2)nc1C(=O)Nc1cc(O)c(OC2CC3CC(C3)C2)c(F)c1 (stereo not shown) [Example 309, N-(4-(bicyclo[3.1.1]heptan-3-yloxy)-3-fluoro-5-hydroxyphenyl)-5-((ethyl(methyl)amino)methyl)-2-(3-ethyl-3-methoxyazetidin-1-yl)oxazole-4-carboxamide] | 1 to 10 | – | 1 to 10 |
